Results from patent US20240400553A1, “AMINE BASED MATRIPTASE 2 INHIBITORS AND USES THEREOF” (Disc Medicine, Inc., priority 2023, published 2024).

Target: T1, Human Recombinant Matriptase 2 (Homo sapiens, UniProt Q8IU80)
T1 construct: made in house
T1 sequence (Q8IU80 1-811): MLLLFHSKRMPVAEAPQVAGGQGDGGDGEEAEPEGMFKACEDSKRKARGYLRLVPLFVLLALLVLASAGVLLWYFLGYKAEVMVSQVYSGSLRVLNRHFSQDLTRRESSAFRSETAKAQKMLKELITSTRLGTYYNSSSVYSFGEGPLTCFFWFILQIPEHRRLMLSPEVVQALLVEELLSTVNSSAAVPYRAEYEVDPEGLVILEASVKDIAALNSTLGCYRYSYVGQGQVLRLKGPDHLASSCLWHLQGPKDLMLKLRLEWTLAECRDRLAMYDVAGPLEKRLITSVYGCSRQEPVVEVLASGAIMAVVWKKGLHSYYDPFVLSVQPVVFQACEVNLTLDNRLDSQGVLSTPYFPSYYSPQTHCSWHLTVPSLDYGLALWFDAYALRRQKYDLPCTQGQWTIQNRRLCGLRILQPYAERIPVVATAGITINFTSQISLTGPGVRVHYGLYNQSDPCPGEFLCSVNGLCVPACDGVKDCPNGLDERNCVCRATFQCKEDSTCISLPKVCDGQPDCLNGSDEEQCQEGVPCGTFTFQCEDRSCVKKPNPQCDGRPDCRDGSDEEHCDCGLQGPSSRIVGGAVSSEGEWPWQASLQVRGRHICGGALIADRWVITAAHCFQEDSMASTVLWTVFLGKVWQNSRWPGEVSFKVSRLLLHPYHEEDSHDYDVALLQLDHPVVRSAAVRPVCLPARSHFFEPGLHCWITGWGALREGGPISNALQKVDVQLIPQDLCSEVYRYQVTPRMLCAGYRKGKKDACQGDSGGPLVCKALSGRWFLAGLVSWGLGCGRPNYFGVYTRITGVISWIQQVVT
Assay: Matriptase 2 inhibition, fluorescence based assay (Method I)
Format: biochemical
Conditions: Table A; Ki of Matriptase-2; read-out: Mat-2 Ki
Procedure, shortened: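 In-house recombinant enzyme (3.5 nM), preincubated 30 min with compound, then Boc-Gln-Ala-Arg-AMC substrate (62 μM) in 50 mM Tris pH 7.5, 150 mM NaCl, 0.01% gelatin, 1% DMSO, 25 °C. Fluorescence (Ex 360/Em 480 nm) read 60 min after substrate; IC50 from variable-slope sigmoidal fit of % inhibition.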

Row | Ki | SMILES
1 | ≤ 100 nM | NCc1ccc2cc(C(=O)OCCN3CCCCC3)n(Cc3cc(NS(=O)(=O)Cc4ccccc4)cc4ccccc34)c2n1 [Compound 65, 2-(piperidin-1-yl)ethyl 6-(aminomethyl)-1-{[3-(phenylmethanesulfon-amido)naphthalen-1-yl]-methyl}-1H-pyrrolo[2,3-b]pyridine-2-carboxylate]
2 | ≤ 100 nM | CC(=O)N1CCC(COC(=O)c2cc3ccc(CN)nc3n2Cc2cc(NS(=O)(=O)Cc3ccccc3)cc3ccccc23)CC1 [Compound 67, (1-acetylpiperidin-4-yl)-methyl 6-(aminomethyl)-1-{[3-(phenylmethane-sulfonamido)naphthalen-1-yl]methyl}-1H-pyr-rolo[2,3-b]pyridine-2-carboxylate]
3 | ≤ 100 nM | Cn1nccc1COC(=O)c1cc2ccc(CN)nc2n1Cc1cc(NS(=O)(=O)Cc2ccccc2)cc2ccccc12 [Compound 68, (1-methyl-1H-pyrazol-5-yl)methyl 6-(amino-methyl)-1-{[3-(phenyl-methanesulfonamido)-naphthalen-1-yl]meth-yl}-1H-pyrrolo[2,3-b]-pyridine-2-carboxylate]
4 | ≤ 100 nM | NCc1ccc2cc(C(=O)OCCN3CCCC3)n(Cc3cc(NS(=O)(=O)Cc4ccccc4)cc4ccccc34)c2n1 [Compound 69, 2-(pyrrolidin-1-yl)ethyl 6-(aminomethyl)-1-{[3-(phenylmethanesulfon-amido)naphthalen-1-yl]-methyl}-1H-pyrrolo[2,3-b]pyridine-2-carboxylate]
5 | ≤ 100 nM | NCc1ccc2cc(C(=O)OC[C@H]3CCCCN3)n(Cc3cc(NS(=O)(=O)Cc4ccccc4)cc4ccccc34)c2n1 [Compound 72, [(2R)-piperidin-2-yl]-methyl 6-(aminomethyl)-1-{[3-(phenylmethane-sulfonamido)naphthalen-1-yl]methyl}-1H-pyr-rolo[2,3-b]pyridine-2-carboxylate]
6 | ≤ 100 nM | CC(C)n1ccnc1COC(=O)c1cc2ccc(CN)nc2n1Cc1cc(NS(=O)(=O)Cc2ccccc2)cc2ccccc12 [Compound 74, [1-(propan-2-yl)-1H-imidazol-2-yl]methyl 6-(aminomethyl)-1-{[3-(phenylmethanesulfon-amido)naphthalen-1-yl]-methyl}-1H-pyrrolo-[2,3-b]pyridine-2-car-boxylate]
7 | ≤ 100 nM | COC(=O)NCCOC(=O)c1cc2ccc(CN)nc2n1Cc1cc(NS(=O)(=O)Cc2ccccc2)cc2ccccc12 [Compound 75, 2-[(methoxycarbonyl)-amino]ethyl 6-(amino-methyl)-1-{[3-(phenyl-methanesulfonamido)-naphthalen-1-yl]methyl}-1H-pyrrolo[2,3-b]pyr-idine-2-carboxylate]
8 | ≤ 100 nM | CNCCNC(=O)c1cc2ccc(CN)nc2n1Cc1cc(NS(=O)(=O)Cc2ccccc2)cc2ccccc12 [Compound 76, 6-(aminomethyl)-N-[2-(methylamino)ethyl]-1-{[3-(phenylmethane-sulfonamido)naphthalen-1-yl]methyl}-1H-pyr-rolo[2,3-b]pyridine-2-carboxamide]
9 | ≤ 100 nM | NCc1ccc2cc(C(=O)OCCN3CCS(=O)(=O)CC3)n(Cc3cc(NS(=O)(=O)Cc4ccccc4)cc4ccccc34)c2n1 [Compound 77, 2-(1,1-dioxo-1-thio-morpholin-4-yl)ethyl 6-(aminomethyl)-1-{[3-(phenylmethanesulfon-amido)naphthalen-1-yl]-methyl}-1H-pyrrolo[2,3-b]pyridine-2-carboxylate]
10 | ≤ 100 nM | NCc1ccc2cc(C(=O)NCCS(N)(=O)=O)n(Cc3cc(NS(=O)(=O)Cc4ccccc4)cc4ccccc34)c2n1 [Compound 78, 6-(aminomethyl)-1-{[3-(phenylmethanesulfon-amido)naphthalen-1-yl]-methyl}-N-(2-sulfamoyl-ethyl)-1H-pyrrolo[2,3-b]pyridine-2-carboxamide]
11 | ≤ 100 nM | CN(C)C(=O)OCCOC(=O)c1cc2ccc(CN)nc2n1Cc1cc(NS(=O)(=O)Cc2ccccc2)cc2ccccc12 [Compound 80, 2-[(dimethylcarbamoyl)-oxy]ethyl 6-(aminometh-yl)-1-{[3-phenylmethane-sulfonamido)naphthalen-1-yl]methyl}-1H-pyr-rolo[2,3-b]pyridine-2-carboxylate]
12 | ≤ 100 nM | NCc1ccc2cc(C(=O)OCc3cccnc3)n(Cc3cc(NS(=O)(=O)Cc4ccccc4)cc4ccccc34)c2n1 [Compound 81, (pyridin-3-yl)methyl 6-(aminomethyl)-1-{[3-(phenylmethanesulfon-amido)naphthalen-1-yl]-methyl}-1H-pyrrolo[2,3-b]pyridine-2-carboxylate]

More lines, now with the values behind:

Row | SMILES | Ki
13 | NCc1ccc2cc(C(=O)OCC3CCN(C=O)CC3)n(Cc3cc(NS(=O)(=O)Cc4ccccc4)cc4ccccc34)c2n1 [Compound 59, (1-formylpiperidin-4-yl)-methyl 6-(aminomethyl)-1-{[3-(phenylmethane-sulfonamido)naphthalen-1-yl]methyl}-1H-pyr-rolo[2,3-b]pyridine-2-carboxylate] | ≤ 100 nM
14 | NCc1ccc2cc(C(=O)NCCN3CCOCC3)n(Cc3cc(NS(=O)(=O)Cc4ccccc4)cc4ccccc34)c2n1 [Compound 60, 6-(aminomethyl)-N-[2-(morpholin-4-yl)ethyl]-1-{[3-(phenylmethane-sulfonamido)naphthalen-1-yl]methyl}-1H-pyr-rolo[2,3-b]pyridine-2-carboxamide] | ≤ 100 nM
15 | Cn1ccc(COC(=O)c2cc3ccc(CN)nc3n2Cc2cc(NS(=O)(=O)Cc3ccccc3)cc3ccccc23)n1 [Compound 61, (1-methyl-1H-pyrazol-3-yl)methyl 6-(amino-methyl)-1-{[3-(phenyl-methanesulfonamido)-naphthalen-1-yl]methyl}-1H-pyrrolo[2,3-b]pyr-idine-2-carboxylate] | ≤ 100 nM
16 | NCc1ccc2cc(C(=O)O)n(Cc3cc(NS(=O)(=O)Cc4ccccc4)cc4ccccc34)c2n1 [Compound 62, 6-(aminomethyl)-1-{[3-(phenylmethanesulfon-amido)naphthalen-1-yl]-methyl}-1H-pyrrolo[2,3-b]pyridine-2-carboxylic acid] | ≤ 100 nM
17 | CNC(=O)c1cc2ccc(CN)nc2n1Cc1cc(NS(=O)(=O)Cc2ccccc2)cc2ccccc12 [Compound 66] | ≤ 100 nM
18 | CC(C)n1cncc1COC(=O)c1cc2ccc(CN)nc2n1Cc1cc(NS(=O)(=O)Cc2ccccc2)cc2ccccc12 [Compound 70, [1-(propan-2-yl)-1H-imidazol-5-yl]methyl 6-(aminomethyl)-1-{[3-(phenylmethanesulfon-amido)naphthalen-1-yl]-methyl}-1H-pyrrolo[2,3-b]pyridine-2-carboxylate] | ≤ 100 nM
19 | CN(C)CCNC(=O)c1cc2ccc(CN)nc2n1Cc1cc(NS(=O)(=O)Cc2ccccc2)cc2ccccc12 [Compound 71, 6-(aminomethyl)-N-[2-(dimethylamino)ethyl]-1-{[3-(phenylmethane-sulfonamido)naphthalen-1-yl]methyl}-1H-pyr-rolo[2,3-b]pyridine-2-carboxamide] | ≤ 100 nM
20 | NCc1ccc2cc(C(=O)OCC3CCOCC3)n(Cc3cc(NS(=O)(=O)Cc4ccccc4)cc4ccccc34)c2n1 [Compound 79, (oxan-4-yl)methyl 6-(aminomethyl)-1-{[3-(phenylmethanesulfon-amido)naphthalen-1-yl]-methyl}-1H-pyrrolo[2,3-b]pyridine-2-carboxylate] | ≤ 100 nM
